{"source": "patent US4353917A", "about": "“Amino derivatives of 2-methyl-5-(2-hydroxystyryl)-1,3,4-thiadiazole, their preparation, and formulations containing these compounds” (BASF Aktiengesellschaft, priority 1979, dated 1982)", "key": {"[1]": {"test_system": "pulse rate of narcotized cats", "experiment": "Increase in pulse rate of narcotized cats by isoproterenol", "assay_type": "in vivo", "details": "1 μg/kg, intravenously; narcotized cats (2-4 kg); average", "procedure": "Isoproterenol (1 μg/kg, administered intravenously) causes increases, averaging 40%, in the pulse rate of narcotized cats (weighing 2-4 kg). β-Sympatholytic agents inhibit such tachycardia. Isoproterenol was administered before, and 10 and 40 minutes after, the intravenous administration of the test substances. Linear relationships exist between the logarithms of the administered doses (mg/kg) of the test substances and the inhibition of isoproterenol-induced tachycardia (%). From these relationships, the doses (ED 50%) which inhibit the isoproterenol-induced tachycardia by 50% are determined."}, "cardiac β1 -receptors": {"target": "T1, cardiac β1 -receptors (Felis catus, UniProt Q9TST6)", "T1 construct": "pulse rate of narcotized cats (weighing 2-4 kg); from tissue; host or cells: heart of the living cat (in vivo, hexobarbital narcosis)", "T1 sequence (Q9TST6 whole entry)": "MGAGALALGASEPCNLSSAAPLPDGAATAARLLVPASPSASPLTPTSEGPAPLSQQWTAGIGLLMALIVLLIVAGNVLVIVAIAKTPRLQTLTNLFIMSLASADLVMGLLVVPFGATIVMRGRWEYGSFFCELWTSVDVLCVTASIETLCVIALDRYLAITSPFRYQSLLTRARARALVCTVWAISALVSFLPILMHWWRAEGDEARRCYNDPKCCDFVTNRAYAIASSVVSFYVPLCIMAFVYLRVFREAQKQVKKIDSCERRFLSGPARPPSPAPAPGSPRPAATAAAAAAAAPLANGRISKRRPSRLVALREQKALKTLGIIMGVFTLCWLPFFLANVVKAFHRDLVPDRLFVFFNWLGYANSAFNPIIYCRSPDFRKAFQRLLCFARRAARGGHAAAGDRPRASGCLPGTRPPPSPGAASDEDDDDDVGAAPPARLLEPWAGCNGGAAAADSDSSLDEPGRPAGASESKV", "experiment": "β-Sympatholytic action: inhibition of isoproterenol-induced tachycardia in narcotized cats", "assay_type": "in vivo", "details": "for β1 -Sympatholytic action R.A. (relative activity): Propranolol = 1.00, cats, intravenous; for ED50: cat, cats under hexobarbital narcosis, intravenous administration, read-out: β1 -Sympatholytic action ED 50%: dose which inhibits the isoproterenol-induced tachycardia by 50%; for blocking dose for cardiac β1 -receptors: times lower than that of propranolol: versus comparative substance propranolol", "procedure": "The β-sympatholytic action was tested on cats. […] The following methods were employed in the tests:\nIsoproterenol (1 μg/kg, administered intravenously) causes increases, averaging 40%, in the pulse rate of narcotized cats (weighing 2-4 kg). β-Sympatholytic agents inhibit such tachycardia. Isoproterenol was administered before, and 10 and 40 minutes after, the intravenous administration of the test substances. Linear relationships exist between the logarithms of the administered doses (mg/kg) of the test substances and the inhibition of isoproterenol-induced tachycardia (%).\n^(1) Inhibition of isoproterenolinduced tachycardia. Cats under\nhexobarbital narcosis. Intravenous administration.\n^(2) Dose (mg/kg), which inhibits the isoproterenolinduced tachycardi\n^(3) Relative activity."}, "in vivo": {"experiment": "in vivo", "details": "mouse; for selectivity ratio: footnote (5) formula is a drawing, read-out: Therapeutic range; for LD50: ip, mice, intraperitoneal administration, read-out: Acute toxicity LD 50"}, "NMRI mice": {"test_system": "NMRI mice", "experiment": "in vivo", "details": "mouse"}}, "data": [{"smiles": "CC(C)NCC(O)c1ccc(O)c(O)c1", "note": "(stereo not shown) [Isoproterenol]", "values": [{"measurement": "increase in the pulse rate", "setting": "[1]", "value": "~40", "unit": "%"}]}, {"smiles": "COc1ccc(CCNCC(O)COc2ccccc2C=Cc2nnc(C)s2)cc1OC", "note": "(stereo not shown) [Example 2]", "values": [{"measurement": "β1 -Sympatholytic action R.A. (relative activity)", "setting": "cardiac β1 -receptors", "value": 5.64}, {"measurement": "ED50", "setting": "cardiac β1 -receptors", "value": 0.025, "unit": "mg/kg"}, {"measurement": "blocking dose for cardiac β1 -receptors: times lower than that of propranolol", "setting": "cardiac β1 -receptors", "value": 5.6, "unit": "times"}, {"measurement": "selectivity ratio", "setting": "in vivo", "value": 3250}, {"measurement": "LD50", "setting": "in vivo", "value": 81.3, "unit": "mg/kg"}, {"measurement": "therapeutic range: times greater than for propranolol", "setting": "NMRI mice", "value": 4.2, "unit": "times"}]}, {"smiles": "Cc1nnc(C=Cc2ccccc2OCC(O)CNC(C)CCc2ccc(O)cc2)s1", "note": "(stereo not shown) [Example 4]", "values": [{"measurement": "β1 -Sympatholytic action R.A. (relative activity)", "setting": "cardiac β1 -receptors", "value": 6.71}, {"measurement": "ED50", "setting": "cardiac β1 -receptors", "value": 0.021, "unit": "mg/kg"}, {"measurement": "blocking dose for cardiac β1 -receptors: times lower than that of propranolol", "setting": "cardiac β1 -receptors", "value": 6.7, "unit": "times"}, {"measurement": "selectivity ratio", "setting": "in vivo", "value": 1990}, {"measurement": "LD50", "setting": "in vivo", "value": 41.7, "unit": "mg/kg"}, {"measurement": "therapeutic range: times greater than for propranolol", "setting": "NMRI mice", "value": 2.6, "unit": "times"}]}]}
